Legend:
Rattus norvegicus [1] = assay: Antihypertensive activity measured as change in blood pressure for a 10-h after 10 mg/kg oral dose in rat; assay type: functional
Rattus norvegicus [2] = assay: Antihypertensive activity measured as change in heart rate was measured for a 10-h after 10 mg/kg oral dose; assay type: functional
Adenosine A2 receptor = Adenosine A2 receptor (Rattus norvegicus, UniProt P29276+P30543); assay: Binding affinity towards adenosine A2 receptor; assay type: protein assay
[3] = biological target: Adenosine receptors; A1 & A2 (Rattus norvegicus) (UniProt P29276+P25099+P30543); assay: Ratio of Ki values of A1 adenosine and A2 adenosine receptor; assay type: protein assay
Adenosine receptor A1 = biological target: T1, Adenosine receptor A1 (Rattus norvegicus, UniProt P25099); assay: Binding affinity towards adenosine A1 receptor
T1 sequence (P25099 whole entry): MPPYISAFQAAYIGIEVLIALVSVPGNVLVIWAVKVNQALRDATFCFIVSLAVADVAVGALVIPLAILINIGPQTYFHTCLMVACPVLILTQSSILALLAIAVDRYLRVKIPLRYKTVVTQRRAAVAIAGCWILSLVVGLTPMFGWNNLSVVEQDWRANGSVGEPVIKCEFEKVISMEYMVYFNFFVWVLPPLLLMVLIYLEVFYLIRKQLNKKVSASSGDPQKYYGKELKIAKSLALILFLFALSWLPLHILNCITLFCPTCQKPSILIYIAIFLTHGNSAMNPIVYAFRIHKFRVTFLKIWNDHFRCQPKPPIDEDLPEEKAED

Row | SMILES | Ki (Adenosine A2 receptor) [µM] | Ratio [3] | Ki (Adenosine receptor A1) [µM] | Change (Rattus norvegicus [1]) [%] | Change (Rattus norvegicus [2]) [%]
1 | OC[C@H]1O[C@@H](n2cnc3c(N[C@H]4CCc5ccccc54)ncnc32)[C@H](O)[C@@H]1O | 23 | 74 | 0.31 | <10 | <10
2 | CCOc1ccc2c(c1)C(Nc1ncnc3c1ncn3[C@@H]1O[C@H](CO)[C@@H](O)[C@H]1O)CCC2 (stereo not given in full) | 5.929 | 86.4 | 0.0686 | -39 | 32
3 | OC[C@H]1O[C@@H](n2cnc3c(N[C@H]4CCCc5ccccc54)ncnc32)[C@H](O)[C@@H]1O | 3.989 | 13.3 | 0.299 | -28 | <10
4 | CCCCCOc1ccc2c(c1)CCC2Nc1ncnc2c1ncn2[C@@H]1O[C@H](CO)[C@@H](O)[C@H]1O (stereo not given in full) | 12.48 | 120 | 0.104 | -47 | -20
5 | OC[C@H]1O[C@@H](n2cnc3c(NC4CCCc5ccc(OCc6ccccc6)cc54)ncnc32)[C@H](O)[C@@H]1O (stereo not given in full) | 95.1 | 12.4 | 7.66 | -30 | 20
6 | OC[C@H]1O[C@@H](n2cnc3c(NC4CCCc5c(OCc6ccccc6)cccc54)ncnc32)[C@H](O)[C@@H]1O (stereo not given in full) | 0.511 | 3.7 | 0.138 | -14 | 20
7 | CCCOc1cccc2c1CCCC2Nc1ncnc2c1ncn2[C@@H]1O[C@H](CO)[C@@H](O)[C@H]1O (stereo not given in full) | 0.327 | 4 | 0.0811 | -27 | 16
8 | OC[C@H]1O[C@@H](n2cnc3c(NC4CCc5cc(O)ccc54)ncnc32)[C@H](O)[C@@H]1O (stereo not given in full) | 0.769 | 18.2 | 0.0423 | -17 | -11
9 | COc1cc2c(c(OC)c1OC)C(Nc1ncnc3c1ncn3[C@@H]1O[C@H](CO)[C@@H](O)[C@H]1O)CC2 (stereo not given in full) | 49.71 | 32.6 | 1.53 | <10 | <10
10 | OC[C@H]1O[C@@H](n2cnc3c(NCC4(O)CCCCc5ccccc54)ncnc32)[C@H](O)[C@@H]1O (stereo not given in full) | 2.705 | 9.8 | 0.275 | -14 | <10
11 | OC[C@H]1O[C@@H](n2cnc3c(NCC4(O)CCc5ccccc54)ncnc32)[C@H](O)[C@@H]1O (stereo not given in full) | 0.666 | 9.8 | 0.068 | -23 | 17
12 | OC[C@H]1O[C@@H](n2cnc3c(N[C@@H]4CCc5ccccc54)ncnc32)[C@H](O)[C@@H]1O | 0.412 | 18.6 | 0.0222 | -37 | -18
13 | OC[C@H]1OC(n2cnc3c(NCC4(O)CCCc5ccccc54)ncnc32)[C@H](O)[C@@H]1O (stereo not given in full) | 1.922 | 31.4 | 0.0613 | <10 | <10
14 | OC[C@H]1O[C@@H](n2cnc3c(NC4CCOc5ccccc54)ncnc32)[C@H](O)[C@@H]1O (stereo not given in full) | 0.339 | 5.3 | 0.0635 | -21 | 21
15 | COc1cc2c(cc1OC)C(Nc1ncnc3c1ncn3[C@@H]1O[C@H](CO)[C@@H](O)[C@H]1O)CC2 (stereo not given in full) | 3.002 | 26.2 | 0.115 | -19 | <10
16 | OC[C@H]1O[C@@H](n2cnc3c(NC4CCc5ccccc54)ncnc32)[C@H](O)[C@@H]1O (stereo not given in full) | 1.12 | 24.5 | 0.0458 | -22 | <10
17 | OC[C@H]1O[C@@H](n2cnc3c(NCC4=CCCc5ccccc54)ncnc32)[C@H](O)[C@@H]1O | 0.0534 | 0.53 | 0.0998 | -39 | 16
18 | OC[C@H]1O[C@@H](n2cnc3c(NC4CCc5cc6c(cc54)OCO6)ncnc32)[C@H](O)[C@@H]1O (stereo not given in full) | 4.539 | 89.9 | 0.0505 | -21 | -21
19 | OC[C@H]1O[C@@H](n2cnc3c(NC4CCc5cc(Cl)ccc54)ncnc32)[C@H](O)[C@@H]1O (stereo not given in full) | 1.808 | 44 | 0.041 | -24 | -24
20 | COc1ccc2c(c1)CCCC2Nc1ncnc2c1ncn2[C@@H]1O[C@H](CO)[C@@H](O)[C@H]1O (stereo not given in full) | 2.947 | 41.2 | 0.0715 | -30 | <10
21 | CCCOc1ccc2c(c1)C(Nc1ncnc3c1ncn3[C@@H]1O[C@H](CO)[C@@H](O)[C@H]1O)CCC2 (stereo not given in full) | 48.29 | 95.5 | 0.506 | <10 | 36

Further lines, with some results ahead:

Row | Ki (Adenosine A2 receptor) [µM] | Ratio [3] | Ki (Adenosine receptor A1) [µM] | SMILES | Change (Rattus norvegicus [1]) [%] | Change (Rattus norvegicus [2]) [%]
22 | 0.163 | 7.1 | 0.0229 | OC[C@H]1O[C@@H](n2cnc3c(N[C@@H]4CCCc5ccccc54)ncnc32)[C@H](O)[C@@H]1O | -57 | -30
23 | 0.16 | 4 | 0.0401 | OC[C@H]1O[C@@H](n2cnc3c(NC4CCCc5ccc(O)cc54)ncnc32)[C@H](O)[C@@H]1O (stereo not given in full) | -17 | <10
24 | 1.642 | 68.9 | 0.0238 | OC[C@H]1O[C@@H](n2cnc3c(NC4Cc5ccccc5C4)ncnc32)[C@H](O)[C@@H]1O | -29 | -47
25 | 0.0769 | 4.27 | 0.0178 | OC[C@H]1O[C@@H](n2cnc3c(NC4CCCCc5ccccc54)ncnc32)[C@H](O)[C@@H]1O (stereo not given in full) | -42 | 28
26 | 3.548 | 87.6 | 0.0405 | O=[N+]([O-])c1ccc2c(c1)CCC2Nc1ncnc2c1ncn2[C@@H]1O[C@H](CO)[C@@H](O)[C@H]1O (stereo not given in full) | -14 | <10
27 | 1.383 | 278 | 0.00498 | COc1cc2c(cc1OC)CC(Nc1ncnc3c1ncn3[C@@H]1O[C@H](CO)[C@@H](O)[C@H]1O)C2 | -17 | -33
28 | 7.487 | 224 | 0.0334 | CCOc1ccc2c(c1)CCC2Nc1ncnc2c1ncn2[C@@H]1O[C@H](CO)[C@@H](O)[C@H]1O (stereo not given in full) | -33 | -34
29 | 0.321 | 9.5 | 0.0337 | OC[C@H]1O[C@@H](n2cnc3c(NC4CCCc5ccccc54)ncnc32)[C@H](O)[C@@H]1O (stereo not given in full) | -51 | -24
30 | 0.0442 | 1.36 | 0.0324 | OC[C@H]1OC(n2cnc3c(NCC4=CCc5ccccc54)ncnc32)[C@H](O)[C@@H]1O (stereo not given in full) | -32 | 26
31 | 0.0917 | 5.2 | 0.0173 | OC[C@H]1O[C@@H](n2cnc3c(NCC4CCCc5ccccc54)ncnc32)[C@H](O)[C@@H]1O (stereo not given in full) | <10 | 21
32 | 9.038 | 323 | 0.028 | CC(C)COc1ccc2c(c1)CCC2Nc1ncnc2c1ncn2[C@@H]1O[C@H](CO)[C@@H](O)[C@H]1O (stereo not given in full) | -39 | -21
33 | 0.229 | 63.9 | 0.0036 | OC[C@H]1O[C@@H](n2cnc3c(NC4CSc5ccccc5C4)ncnc32)[C@H](O)[C@@H]1O (stereo not given in full) | -21 | -33
34 | 0.175 | 8.6 | 0.0204 | OC[C@H]1O[C@@H](n2cnc3c(NC4CCCc5c(O)cccc54)ncnc32)[C@H](O)[C@@H]1O (stereo not given in full) | <10 | <10
35 | 5.302 | 188 | 0.0282 | CCCOc1ccc2c(c1)CCC2Nc1ncnc2c1ncn2[C@@H]1O[C@H](CO)[C@@H](O)[C@H]1O (stereo not given in full) | -43 | -30
36 | 0.0667 | 12.9 | 0.00519 | OC[C@H]1O[C@@H](n2cnc3c(NCC4CCc5ccccc54)ncnc32)[C@H](O)[C@@H]1O (stereo not given in full) | -40 | -15
37 | 0.218 | 9.2 | 0.0237 | COc1cccc2c1CCCC2Nc1ncnc2c1ncn2[C@@H]1O[C@H](CO)[C@@H](O)[C@H]1O (stereo not given in full) | -52 | -31
38 | 1.234 | 48.7 | 0.0254 | OC[C@H]1O[C@@H](n2cnc3c(NC4CCCc5ccccc5C4)ncnc32)[C@H](O)[C@@H]1O (stereo not given in full) | -22 | -32
39 | 0.339 | 40.3 | 0.00839 | OC[C@H]1OC(n2cnc3c(NC4CCc5ccccc5C4)ncnc32)[C@H](O)[C@@H]1O (stereo not given in full) | -47 | -44
40 | 0.0583 | 1.83 | 0.0319 | OC[C@H]1O[C@@H](n2cnc3c(NC4CCSc5ccccc54)ncnc32)[C@H](O)[C@@H]1O (stereo not given in full) | -23 | 29
